Measurements reported in US6828440B2, “Spiroindene and spiroindane compounds” (Euro-Celtique, S.A., priority 2001, dated 2004).

Columns and labels:
[1] = target: T1, human opioid receptor-like receptor (ORL-1) (Homo sapiens, UniProt P41146); test: Nociceptin affinity at the ORL1 receptor ([35S]GTPgS binding, membranes from recombinant HEK-293 cells); settings: ORL-1 membranes from recombinant HEK-293 cells; GraphPad PRISM curve fitting; read-out: Nociceptin Affinity calc Ki
T1 construct: host or cells: HEK-293
T1 sequence (P41146 whole entry): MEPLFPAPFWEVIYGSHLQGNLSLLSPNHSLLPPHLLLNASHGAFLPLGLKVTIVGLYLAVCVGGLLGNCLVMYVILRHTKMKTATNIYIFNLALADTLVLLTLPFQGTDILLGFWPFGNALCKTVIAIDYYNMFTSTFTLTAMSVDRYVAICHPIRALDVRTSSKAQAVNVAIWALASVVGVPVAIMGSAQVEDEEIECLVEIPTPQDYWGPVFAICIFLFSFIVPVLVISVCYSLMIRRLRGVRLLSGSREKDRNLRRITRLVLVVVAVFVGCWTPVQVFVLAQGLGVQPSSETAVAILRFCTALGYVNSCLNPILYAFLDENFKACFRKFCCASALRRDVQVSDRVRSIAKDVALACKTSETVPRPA
Description: Nociceptin affinity at the ORL1 receptor for preferred compounds was obtained using the following assay:
Membranes from recombinant HEK-293 cells expressing the human opioid receptor-like receptor (ORL-1) (Receptor Biology) were prepared by lysing cells in ice-cold hypotonic buffer (2.5 mM MgCl2, 50 mM HEPES, pH 7.4) (10 ml/10 cm dish) followed by homogenization with a tissue grinder/teflon pestle. Membranes were collected by centrifugation at 30,000× g for 15 min at 4° C. and pellets resuspended in hypotonic buffer to a final concentration of 1-3 mg/ml. Protein concentrations were determined using the BioRad protein assay reagent with bovine serum albumen as standard. Aliquots of the ORL-1 receptor membranes were stored at −80° C.
Functional SGTPgS binding assays were conducted as follows. ORL-1 membrane solution was prepared by sequentially adding final concentrations of 0.066 mg/ml ORL-1 membrane protein, […], […] and 0.20 nM [^35S]GTPgS to binding buffer (100 mM NaCl, 10 mM MgCl2, 20 mM HEPES, pH 7.4) on ice. The prepared membrane solution ([…]) was transferred to 96-shallow well polypropylene plates containing […] of 20× concentrated stock solutions of agonist prepared in DMSO. Plates were incubated for 30 min at room temperature with shaking. Reactions were terminated by rapid filtration onto 96-well Unifilter GF/B filter plates (Packard) using a 96-well tissue harvester (Brandel) and followed by three filtration washes with […] ice-cold binding buffer (10 mM NaH2PO4, 10 mM Na2HPO4, pH 7.4). Filter plates were subsequently dried at 50° C. for 2-3 hours. […] scintillation cocktail (BetaScint; Wallac) was added and plates were counted in a Packard Top-Count for 1 min/well.
Data was analyzed using the curve fitting functions in GraphPad PRISMÔ, v.

Mu opioid receptor = Mu opioid receptor (Homo sapiens, UniProt P35372); test: Affinity at the μ receptor ([35S]GTPγS binding, membranes); settings: GraphPad PRISM curve fitting, read-out: Mu Receptor Affinity calc Ki
Chain of Mu opioid receptor (P35372 whole entry, species assumed): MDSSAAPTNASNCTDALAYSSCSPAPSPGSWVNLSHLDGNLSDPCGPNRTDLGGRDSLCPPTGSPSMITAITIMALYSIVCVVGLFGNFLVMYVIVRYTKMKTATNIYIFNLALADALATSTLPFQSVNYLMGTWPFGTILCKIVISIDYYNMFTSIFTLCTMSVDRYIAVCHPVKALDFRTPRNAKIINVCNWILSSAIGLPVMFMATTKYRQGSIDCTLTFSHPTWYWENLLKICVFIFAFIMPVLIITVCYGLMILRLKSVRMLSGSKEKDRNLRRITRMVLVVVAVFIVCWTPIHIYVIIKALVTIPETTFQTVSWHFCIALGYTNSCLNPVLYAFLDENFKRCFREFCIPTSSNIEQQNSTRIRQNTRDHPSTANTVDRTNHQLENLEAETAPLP
Description: Affinity at the μ receptor for compounds was obtained according to the following assay:
Mu opioid receptor membrane solution was prepared by sequentially adding final concentrations of […] of the desired membrane protein, 10 μg/ml saponin, 3 μM GDP and 0.20 nM [^35S]GTPγS to binding buffer (100 mM NaCl, 10 mM MgCl2, 20 mM HEPES, pH 7.4) on ice. The prepared membrane solution (190 μl/well) was transferred to 96-shallow well polypropylene plates containing 10 μl of 20× concentrated stock solutions of agonist prepared in DMSO. Plates were incubated for 30 min at room temperature with shaking. Reactions were terminated by rapid filtration onto 96-well Unifilter GF/B filter plates (Packard) using a 96-well tissue harvester (Brandel) and followed by three filtration washes with 200 μl ice-cold binding buffer (10 mM NaH2PO4, 10 mM Na2HPO4, pH 7.4). Filter plates were subsequently dried at 50° C. for 2-3 hours. Fifty μl/well scintillation cocktail (MicroScint20, Packard) was added and plates were counted in a Packard Top-Count for 1 min/well.
Data were analyzed using the curve fitting functions in GraphPad PRISM™, v.3.0 and the results for several compounds are set forth in table 2 below: […]

Compound | Ki [1] [nM] | Ki (Mu opioid receptor) [nM]
c1ccc2c(c1)CCC21CCN(C2CCCCCCC2)CC1 [1-(cyclooctyl)-spiro[piperidine-4,1′-indane]] | 516 | –
c1ccc2c(c1)CCC21CCN(C2CC3CCC2C3)CC1 (stereo not shown) [1-[norbornan-2-yl]-spiro[piperidine-4,1′-indane]] | 7210 | –
C1=CC2(CCN(C3c4ccccc4CCc4ccccc43)CC2)c2ccccc21 [1-(10,11-Dihydro-5H-dibenzo[a,d]-cyclohepten-5-yl)-spiro[piperidine-4,1′-indene]] | > 10000 | –
C1=CC2(CCN(C3CCCCCCC3)CC2)c2ccccc21 [1-(cyclooctyl)-spiro[piperidine-4,1′-indene]] | 500 | 2040
c1ccc(CN2CCC3(CCc4ccccc43)CC2)cc1 [1-(benzyl)-spiro[piperidine-4,1′-indane]] | 879 | –
c1ccc(-c2ccc(CN3CCC4(CCc5ccccc54)CC3)cc2)cc1 [1-(p-phenylbenzyl)-spiro[piperidine-4,1′-indane]] | 1210 | –
C1=CC2(CCN(Cc3ccc(OCc4ccccc4)cc3)CC2)c2ccccc21 [1-(p-benzyloxybenzyl)-spiro[piperidine-4,1′-indene]] | 1560 | –
C1=CC2(CCN(C3CCCCCCCCC3)CC2)c2ccccc21 [1-cyclodecyl-spiro[piperidine-4,1′-indene]] | 427 | –
C1=CC2(CCN(CC3CCCCCCC3)CC2)c2ccccc21 [1-(cyclooctylmethyl)-spiro[piperidine-4,1′-indene]] | 309 | –
CC(C)C1CCC(N2CCC3(CCc4ccccc43)CC2)CC1 (stereo not shown) [1-(4-(1-methylethyl)-cyclohexyl)-spiro[piperidine-4,1′-indane]] | 500 | 939
C1=CC2(CCN(C3CCc4ccccc4C3)CC2)c2ccccc21 (stereo not shown) [1-(2-[1,2,3,4-tetrahydronaphthyl])-spiro[piperidine-4,1′-indene]] | 1200 | –
c1ccc2c(c1)CCC21CCN(C2CCC3CCCCC3C2)CC1 (stereo not shown) [1-(decahydro-2-naphthyl)-spiro[piperidine-4,1′-indane]] | 3140 | –
c1ccc2c(c1)CCC21CCN(Cc2ccc3ccccc3c2)CC1 [1-(naphth-2-yl-methyl)-spiro[piperidine-4,1′-indane]] | 35 | 593
CC1(C)COC2(CCC(N3CCC4(CCc5ccccc54)CC3)CC2)OC1 [1-(3,3-dimethyl-1,5-dioxaspiro[5.5]undeca-9-yl)-spiro[piperidine-4,1′-indane]] | > 10000 | –
N#Cc1ccc(CN2CCC3(CCc4ccccc43)CC2)cc1 [1-(p-cyano-benzyl)-spiro[piperidine-4,1′-indane]] | 1530 | –
CCCC1CCC(N2CCC3(CCc4ccccc43)CC2)CC1 (stereo not shown) [1-(4-propyl-cyclohexyl)-spiro[piperidine-4,1′-indane]] | 2240 | –
C1=CC2(CCN(C3Cc4ccccc4C3)CC2)c2ccccc21 [1-(1,3-dihydroinden-2-yl)-spiro[piperidine-4,1′-indene]] | 8500 | –
Fc1ccc(C(CCCN2CCC3(CCc4ccccc43)CC2)c2ccc(F)cc2)cc1 [1-(4,4-Bis(p-fluorophenyl)butyl)-spiro[piperidine-4,1′-indane]] | > 10000 | –

Compound | Ki [1] [nM] | Ki (Mu opioid receptor) [nM]
c1ccc2cc(CN3CCC4(CCC5CCCCC54)CC3)ccc2c1 (stereo not drawn) [1-(naphth-2-yl-methyl)-spiro[piperidine-4,1′-cis-3a, 4,5,6,7,7a-hexahydroindane]] | 306 | –
C1=CC2(CCN(C3CC4CCC3C4)CC2)c2ccccc21 (stereo not shown) [1-(norbornan-2-yl)-spiro[piperidine-4,1′-indene]] | 6470 | –
c1ccc(CCN2CCC3(CCc4ccccc43)CC2)cc1 [1-(2-phenyl-ethyl)-spiro[piperidine-4,1′-indane]] | 921 | –
c1ccc2c(c1)CC(N1CCC3(CCc4ccccc43)CC1)C2 [1-(1,3-dihydroinden-2-yl)-spiro[piperidine-4,1′-indane]] | > 10000 | –
c1ccc2c(c1)CCc1ccccc1C2N1CCC2(CCc3ccccc32)CC1 [1-(10,11-Dihydro-5H-dibenzo[a,d]-cyclohepten-5-yl)-spiro[piperidine-4,1′-indane]] | > 10000 | –
c1ccc2c(c1)CCC21CCN(C2C3CCC2CC3)CC1 (stereo not shown) [1-(norbornan-7-yl)-spiro[piperidine-4,1′-indane]] | 913 | –
c1ccc2c(c1)CCC21CCN(CC2CCCCCCC2)CC1 [1-(cyclooctylmethyl)-spiro[piperidine-4,1′-indane]] | 153 | –
O=C1Cc2ccccc2C12CCN(Cc1ccc3ccccc3c1)CC2 [1-(naphth-2-yl-methyl)-spiro[piperidine-4,1′-(2-oxo)-indane]] | 83 | –
O=C1CC2(CCN(Cc3ccc4ccccc4c3)CC2)c2ccccc21 [1-(naphth-2-yl-methyl)-spiro[piperidine-4,1′-(3-oxo)-indane]] | 419 | –
CC1(C)COC2(CCC(N3CCC4(C=Cc5ccccc54)CC3)CC2)OC1 [1-(3,3-dimethyl-1,5-dioxaspiro[5.5]undeca-9-yl)-spiro[piperidine-4,1′-indene]] | > 10000 | –
CC(C)CCC(C)N1CCC2(C=Cc3ccccc32)CC1 (stereo not shown) [1-(5-methylhex-2-yl)-spiro[piperidine-4,1′-indene]] | 355 | –
CC(C)C1CCC(N2CCC3(C=Cc4ccccc43)CC2)CC1 (stereo not shown) [1-[4-(2-propyl)-cyclohexyl]-spiro[piperidine-4,1′-indene]] | 292 | –
c1ccc(COc2ccc(CN3CCC4(CCc5ccccc54)CC3)cc2)cc1 [1-(p-benzyloxybenzyl)-spiro[piperidine-4,1′-indane]] | 877 | –
c1ccc2c(c1)CCC21CCN(Cc2cccc3ccccc23)CC1 [1-(naphth-1-yl-methyl)-spiro[piperidine-4,1′-indane]] | 146 | 1120
CC(C)CCC(C)N1CCC2(CCc3ccccc32)CC1 (stereo not shown) [1-(5-methylhex-2-yl)-spiro[piperidine-4,1′-indane]] | 676 | –
C1=CC2(CCN(Cc3ccc4ccccc4c3)CC2)c2ccccc21 [1-(naphth-2-yl-methyl)-spiro[piperidine-4,1′-indene]] | 36 | –
C1=CC2(CCN(CCC(c3ccccc3)c3ccccc3)CC2)c2ccccc21 [1-(3,3-Bis(phenyl)propyl)-spiro[piperidine-4,1′-indene]] | 42 | –
C1=CC2(CCN(C3CCC4CCCCC4C3)CC2)c2ccccc21 (stereo not shown) [1-(decahydro-2-naphthyl)-spiro[piperidine-4,1′-indene]] | 1290 | –
